Test results: PubChem BioAssay AID485276 (Southern Research Specialized Biocontainment Screening …, 2010)

Test system: BSC cells, SV40 CPE inhibition
Assay: SV40 cytopathic effect inhibition and cytotoxicity, confirmation, BSC cells, set 3 (AID 485276)
Details: measured here: BSC cell cytotoxicity

Row | SMILES | TC50
1 | CC(C)c1cc(C(C)(C)c2ccc(O)c(C(C)C)c2)ccc1O | 24 µM
2 | CC(C)(c1ccc(O)cc1)c1ccc(O)cc1 | 17 µM
3 | Oc1ccc(Oc2ccc(O)cc2)cc1 | 9.92 µM
4 | Oc1c(Cl)cc(Cl)cc1Sc1cc(Cl)cc(Cl)c1O | 21.2 µM
5 | CC(C)(c1ccc(O)cc1)c1ccc(Cl)cc1 | 71.2 µM
6 | Oc1ccc(C2(c3ccc(O)cc3)CC2)cc1 | 196 µM
7 | Oc1ccc(Cl)cc1Cc1cc(Cl)ccc1O | 18 µM
